In patent publication US4680382A, “Analogues of actinomycin D” (priority 1986, dated 1987):

Tests used:
[1] = biological target: T1, NADPH cytochrome P-450 reductase (rat liver microsomes) (Rattus norvegicus, UniProt P00388); assay: Stimulation of NADPH oxidation in rat hepatic microsomal incubations; conditions: for NADPH oxid: 340 nm, 37° C., phenobarbital induced microsomes, mean ± standard error of triplicate, basal 9.11 ± 0.30; for percentage stimulation of NADPH oxidation over basal rate: (drug-stimulated rate - basal rate)/basal rate × 100
T1 sequence (P00388 1-678): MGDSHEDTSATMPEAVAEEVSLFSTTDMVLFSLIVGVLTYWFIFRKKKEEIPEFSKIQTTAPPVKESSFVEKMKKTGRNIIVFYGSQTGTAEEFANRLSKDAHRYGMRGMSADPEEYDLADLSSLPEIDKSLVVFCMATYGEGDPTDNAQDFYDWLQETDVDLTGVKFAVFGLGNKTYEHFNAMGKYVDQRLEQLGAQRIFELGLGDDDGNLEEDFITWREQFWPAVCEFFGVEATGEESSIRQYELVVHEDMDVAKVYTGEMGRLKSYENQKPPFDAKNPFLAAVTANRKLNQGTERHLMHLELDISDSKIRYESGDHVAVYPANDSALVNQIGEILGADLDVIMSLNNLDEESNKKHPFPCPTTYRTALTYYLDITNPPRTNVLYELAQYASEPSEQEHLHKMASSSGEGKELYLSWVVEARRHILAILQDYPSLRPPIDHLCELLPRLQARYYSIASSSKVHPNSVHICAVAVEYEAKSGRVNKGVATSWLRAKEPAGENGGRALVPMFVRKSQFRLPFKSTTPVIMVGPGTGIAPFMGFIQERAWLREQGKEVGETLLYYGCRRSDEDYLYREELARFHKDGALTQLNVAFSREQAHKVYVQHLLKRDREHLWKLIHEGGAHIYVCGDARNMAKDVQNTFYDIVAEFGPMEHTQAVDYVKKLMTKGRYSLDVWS

[2] = system: rat hepatic microsomes; assay: Stimulation of adrenochrome formation (superoxide generation) in rat hepatic microsomal incubations; conditions: for adrenochrome formation: 480 nm, 37° C., no more than 100 μM drug, basal 2.11 ± 0.11; for adrenochrome formation / percentage stimulation of adrenochrome formation over basal rate: no SOD
[3] = system: liver microsomes; assay: EPR detection of free-radical intermediates with liver microsomes and NADPH (anaerobic); assay type: biochemical; conditions: NADPH, potassium phosphate buffer
Description: No free-radical intermediates were detected in the absence of enzyme or substrates.
Melting points are determined on a Thomas-Hoover melting point apparatus at a heating rate of 2° C./min. Thin-layer chromatography was performed on silica gel plates (Brinkmann Instrument Inc.). Solvent systems were (A) EtOAc-acetone (4:1), (B) CHCl3 -MeOH (9:1) and (C) Cifferri, the organic phase of the mixture EtOAc-MeOH-H2 O (20:1:20). High-performance liquid chromatography was carried out on a Varian Model 5020 gradient liquid chromatograph equipped with a CD-111L chromatography data system and fitted with a Varian reversed-phase C18 column with the following solvent systems: I, CH3 CN-5 mM NH4 OAc buffer, pH 6.4 (68:32 isocratic), flow rate 1.5 mL/min; II, 65-95% water-methanol gradient for 70 min, 1 mL/min; III, 10-90% H2 O-MeOH gradient for 120 min, 1 mL/min, with UV-visible variable- and fixed-wavelength dual detectors at 254, 440, 470 and 520 nm. IR spectra were obtained on a Perkin-Elmer Model 237 Infra Cord with KBr micropellets or in chloroform solutions. UV-visible spectra were obtained on a Gilford 250 spectrophorometer, which, with the addition of a base-line reference compensator (Analog Multiplexer 5053) and thermoprogrammer, auto four cell programmer and thermoelectric cell holder 2577, were used to obtain thermal denaturation curves. Specific rotation values were determined in chloroform solutions with a Cary 60 spectropolarimeter. NMR spectra were obtained in a JEOL FQ-90 MHz spectrometer equipped with Fourier transform. EPR spectra analyses were recorded in a Varian E-9 EPR spectrometer. All elemental analyses were within ±0.4%.

[4] = system: CCRF-CEM human lymphoblastic leukemic cells; assay: In vitro cytotoxicity against CCRF-CEM cells; assay type: cell-based; conditions: 48 hr
Description: ^a Human lymphoblastic leukemic cells.
The analogues were tested for their cytotoxicity against tumor cells (time, 48 hr). […] This may be associated with the initial microsomal transformation of the "reverse" analogues to "symmetrical" analogue and/or other alternate bioactive forms (e.g., free-radicals, O2^-), followed by deactivation via formation of conjugates and facile elimination of these from the host. The "reverse" analogues show reduced toxicity in vivo and also the tritiated "reverse" 7a is metabolized in vitro.

[5] = system: P388 cells; assay: Inhibition of RNA synthesis (2-[14C]uridine incorporation) in P388 cells; assay type: cell-based, murine
Description: (§1) Experiments for inhibition of nucleic acid synthesis in tumor cells in vitro were carried out with P388 tumor cells, details of which were reported by Sengupta et al, J. Med. Chem., 18, 1175 (1975). […] AMD-OZLs inhibit either process with equal activity and with the potency of its metabolite 7-hydroxy-AMD.
^b IC50 (RNA) = concentration of inhibitor in μM required to
cause 50% reduction (in 1 hr) in 2[^14 C]uridine incorporation into
acid precipitable material with use of P388 cells.

[6] = system: P388 cells; assay: Inhibition of DNA synthesis (methyl-[3H]thymidine incorporation) in P388 cells; assay type: cell-based, murine; conditions: 50% reduction in 1 hr of methyl-[3H]thymidine incorporation, read-out: IC50 DNA synth
Description: as §1
^c IC50 (DNA) = concentration of inhibitor in μM required to
cause 50% reduction (in 1 hr) in methyl[^3 H]thymidine incorporation
into acid precipitable material with use of P388 cells.

[7] = system: P388 lymphocytic leukemia; assay: In vivo antitumor activity against P388 leukemia; parameters: species or system BDF1 mice
Description: The analogues were tested for their antitumor activities in P388 lymphocytic leukemia in male BDF1 mice. The tumor was implanted intraperitoneally (ip) with 10^6 cells. The drugs were also administered ip once daily on days 1, 5 and 9, beginning 1 day after tumor transplantation. Analogues were tested over a range of doses, but only the optimal nontoxic doses are listed.
^a 10^6 P388 cells implanted ip on day 0 into groups of eight
BDF1 male mice. Drugs administered ip. MST (range), median survival
time in days (range of individual animal deaths); % ILS, percent increase
in life span, calculated 100(T/C - 1), where T and C are median survival
times of treated and control animals; surv, number of surviving mice/tota

[8] = system: B16 melanoma; assay: In vivo antitumor activity against B16 melanoma; parameters: species or system BDF1 mice
Description: AMD-OZL analogues 9a and 10a were about as active as AMD and 7-hydroxy-AMD. The potencies of these analogues are reduced in comparison to that of AMD; their optimal doses were higher than that of AMD.
^a 0.2 mL of 1:5 (weight/volume) brei of B16 melanoma implanted
ip on day 0 in groups of nine BDF1 mice. Drugs administered ip.
^b MST (range) median survival time in days (range of individual
^c % ILS (surv), percent increase in lifespan (survivors on day

[9] = Maximum tolerated dose (LD10) in tumor-free BDF1 male mice; assay type: in vivo
Description: (§2) These analogues were also tested in tumor-free BDF1 male mice for determination of their MTD values (Table VIII). The animals (18-22 g) were given a broad range of doses of drugs in 5% dimethyl sulfoxide-saline on days 1, 5 and 9. Drugs were administered ip and the maximum tolerated doses of agents which caused death in only 10% of the tested animals in 21 days (i.e., LD10) were recorded as MTD. […] However, the MED values of 7-hydroxy-AMD and its precursor AMD-OZL 10a are high and are seven to tenfold of the MED values of 4a and 8a. On the basis of these MED values, the therapeutic indices of 8a and 4a are 70 and 96. The therapeutic index of 2a is 13, of 10a 10, and of AMD only 4.
^c MTD (maximum tolerated dose) is the lethal dose
(milligram/kilogram) for 10% normal BDF1 male mice (18-22 g); animal
calculated from a plot of logdose vs. percent mortality.

[10] = system: P388 Leukemia; assay: Minimum effective dose and therapeutic index vs. P388 leukemia; assay type: in vivo; conditions: dose giving 45% increase in life span in P388 tumor bearing mice; ip days 1, 5 and 9
Description: as §2
^a Drugs administered ip once on days 1, 5 and 9 starting 1 day after
tumor implantation. Determinations were made from analysis of plotted
^b MED (minimum effective dose) is the dose (milligram/kilogram)
providing an increase in life span of 45% over control in P388 tumor

| Compound | NADPH oxid [1] | percentage stimulation of NADPH oxidation over basal rate [1] [%] | adrenochrome formation [2] | percentage stimulation of adrenochrome formation over basal rate [2] | free-radical intermediate detected by EPR [3] | further results |
| --- | --- | --- | --- | --- | --- | --- |
| CCN(CC)C(=O)c1c2nc3c(C(=O)N(CC)CC)cc(O)c(C)c3oc-2c(C)c(=O)c1N [2b] | 8.9 ± 0.90 nmol min^-1 (mg of protein)^-1 | -2 | 2.13 ± 0.19 nmol min^-1 (mg of protein)^-1 | +1% |  |  |
| CCN(CC)C(=O)c1c2nc3c(C(=O)N(CC)CC)c(N)c(O)c(C)c3oc-2c(C)c(=O)c1N [4b, 2,8-Diamino-1,9-bis(diethylcarbamoyl)-7-hydroxy-4,6-dimethyl-3-H-phenoxazine-3-one] | 8.9 ± 0.90 nmol min^-1 (mg of protein)^-1 | -2 | 2.13 ± 0.19 nmol min^-1 (mg of protein)^-1 | +1% | no free-radical intermediates were detectable |  |
| CCN(CC)C(=O)c1c2nc3c(C(=O)N(CC)CC)c4nc(C)oc4c(C)c3oc-2c(C)c(=O)c1N [7b] | 8.9 ± 0.90 nmol min^-1 (mg of protein)^-1 | -2 | 2.13 ± 0.19 nmol min^-1 (mg of protein)^-1 | +1% | no free-radical intermediates were detectable |  |
| Cc1c2oc3c(C)c(O)cc(C(=O)N[C@@H]4C(=O)N[C@H](C(C)C)C(=O)N5CCC[C@H]5C(=O)N(C)CC(=O)N(C)[C@@H](C(C)C)C(=O)O[C@@H]4C)c3nc-2c(C(=O)N[C@@H]2C(=O)N[C@H](C(C)C)C(=O)N3CCC[C@H]3C(=O)N(C)CC(=O)N(C)[C@@H](C(C)C)C(=O)O[C@@H]2C)c(N)c1=O [2a, 7-hydroxyactinomycin D, reference compound] | 29.9 ± 1.91 nmol min^-1 (mg of protein)^-1 | 228 | 7.29 ± 0.79 nmol min^-1 (mg of protein)^-1 | 245% |  | in vitro (CCRF-CEM) ID50 [4]: 1 µM; IC50 ([5]; 50% reduction in 1 hr of 2-[14C]uridine incorporation, read-out: IC50 RNA synth): 5.1 µM; IC50 DNA/IC50 RNA ([5]; ratio): 1.00; IC50 [6]: 5.1 µM; surv (surviving mice/total mice at 60 days) ([7]; P388, at optimal dose): 0/8; % ILS ([7]; P388, at optimal dose, 100(T/C - 1)): 136%; MST (range) ([7]; P388, at optimal dose, control 11.0 (9-12)): 26.0 (19-39) days; optimal dose ([7]; P388, ip, days 1, 5 and 9, optimal nontoxic dose): 1200.0 μg/kg per inj; % ILS ([8]; at optimal dose): 52%; surv (survivors on day 65/total injected) ([8]; at optimal dose): 1/9; MST (range) ([8]; at optimal dose, control 29 (20-48)): 44 (39-53) days; optimal dose ([8]; ip, days 1, 5, 9): 1200 μg/kg per inj; MTD (maximum tolerated dose) ([9]; lethal dose for 10% normal BDF1 male mice, 21 days (LD10), ip days 1, 5 and 9): 3.50 milligram/kilogram; MTD as fold of the MTD of AMD ([9]; tumor-free BDF1 male mice): about 14 fold; MED (minimum effective dose) [10]: 0.275 milligram/kilogram; adrenochrome formation in presence of SOD ([2]; SOD (superoxide dismutase) 5 μg/mL added): inhibited |
